Blank lines part the entries; values can stand above or below the molecule they belong to.
Columns and labels:
K562 [1] = test: Antiproliferative activity against human K562 cells assessed as reduction in cell viability incubated for 72 hrs by MTT assay; assay type: functional, cell-based; settings: K562, 72 h
HCT-116 [2] = test: Antiproliferative activity against human HCT-116 cells assessed as reduction in cell viability incubated for 72 hrs by MTT assay; assay type: functional, cell-based; settings: HCT-116, 72 h
K562 [3] = test: Antitumor activity against human K562 cells assessed as reduction in cell viability incubated for 72 hrs by MTT assay; assay type: functional, cell-based; settings: K562, 72 h
HCT-116 [4] = test: Antitumor activity against human HCT-116 cells assessed as reduction in cell viability incubated for 72 hrs by MTT assay; assay type: functional, cell-based; settings: HCT-116, 72 h
NCI-H292 = test: Antiproliferative activity against human NCI-H292 cells assessed as reduction in cell viability by MTT assay; assay type: functional, cell-based
HeLa = test: Antiproliferative activity against human HeLa cells assessed as reduction in cell viability by MTT assay; assay type: functional, cell-based
[5] = Inhibition of yeast mitochondrial F0F1-ATPase assessed as inhibition constant measured after 20 mins in presence of NADH and ATP by microplate reader analysis; assay type: mitochondria, Saccharomyces cerevisiae, Mitochondria
HL-60 [6] = test: Anticancer activity against human HL-60 cells assessed inhibition of cell proliferation incubated for 48 hrs by MTT assay; assay type: functional, cell-based; settings: HL-60, 48 h
[7] = Inhibition of mouse liver mitochondrial ATP synthase by microplate immuno-capture ELISA assay; assay type: mitochondria, Mitochondria
P388 = test: Anticancer activity against mouse P388 cells assessed as reduction in cell viability incubated for 96 hrs by MTT assay; assay type: functional, cell-based; settings: P388, 96 h
MCF7 [8] = test: Antitumor activity against human MCF7 cells assessed as reduction in cell viability incubated for 24 hrs by MTT assay; assay type: functional, cell-based; settings: MCF7, 24 h
[9] = Inhibition of bovine heart mitochondrial F0F1-ATPase assessed as reduction in ATP synthesis by fluorescence assay; assay type: mitochondria, Bos taurus, Mitochondria
[10] = Inhibition of bovine heart mitochondrial F0F1-ATPase assessed as decrease in rate of ATP hydrolysis by fluorescence assay; assay type: mitochondria, Bos taurus, Mitochondria
T47D = test: Antiproliferative activity against human T47D cells assessed as reduction in cell viability incubated for 48 hrs by MTT assay; assay type: functional, cell-based
MDA-MB-231 = test: Antiproliferative activity against human MDA-MB-231 cells assessed as reduction in cell viability incubated for 48 hrs by MTT assay; assay type: functional, cell-based; settings: MDA-MB-231, 48 h
MCF7 [11] = test: Antiproliferative activity against human MCF7 cells assessed as reduction in cell viability incubated for 48 hrs by MTT assay; assay type: functional, cell-based; settings: MCF7, 48 h
HL-60 [12] = test: Antiproliferative activity against human HL-60 cells assessed as reduction in cell viability incubated for 48 hrs by MTT assay; assay type: functional, cell-based; settings: HL-60, 48 h
SMMC-7721 = test: Antiproliferative activity against human SMMC-7721 cells assessed as reduction in cell viability incubated for 48 hrs by MTT assay; assay type: functional, cell-based; settings: SMMC-7721, 48 h
A549 = test: Antiproliferative activity against human A549 cells assessed as reduction in cell viability incubated for 48 hrs by MTT assay; assay type: functional, cell-based; settings: A549, 48 h
SW480 = test: Antiproliferative activity against human SW480 cells assessed as reduction in cell viability incubated for 48 hrs by MTT assay; assay type: functional, cell-based; settings: SW480, 48 h

SMILES: CC[C@H]1/C=C/C=C/C[C@@H](C)[C@H](O)[C@@](C)(O)C(=O)[C@@H](C)[C@H](O)[C@@H](C)C(=O)[C@@H](C)[C@H](O)[C@@H](C)/C=C/C(=O)O[C@@H]2[C@H](C)[C@H](CC1)O[C@]1(CC[C@H](C)[C@H](C[C@@H](C)O)O1)[C@H]2C [OLIGOMYCIN]
IC50 (K562 [1]): 200 nM | IC50 (HCT-116 [2]): 900 nM | IC50 (K562 [3]): 200 nM | IC50 (HCT-116 [4]): 1000 nM

IC50 (NCI-H292): 91 nM | IC50 (HeLa): 240 nM
SMILES: COC[C@@H](C[C@H]1O[C@@](O)([C@H](O)[C@@H]2C[C@H](OC)[C@@H](O)CC/C=C(C)/C=C/[C@@H](O[C@@H]3O[C@@H](C)[C@H](OC)[C@@H](O)[C@@H]3OC(=O)CCC(=O)O)[C@H](C)/C=C(C)/C=C(C)/C=C(\C)C(=O)O2)[C@H](C)[C@@H](O)[C@H]1C)O[C@H]1C[C@](C)(O)[C@@H](O[C@H]2C[C@@H](OC)[C@H](O)[C@@H](C)O2)[C@H](C)O1

SMILES: COC[C@@H](C[C@H]1O[C@@](O)([C@@H]2OC(=O)/C(C)=C/C(C)=C/C(C)=C/[C@@H](C)[C@H](O[C@@H]3O[C@@H](C)[C@H](OC)[C@@H](O)[C@@H]3O)/C=C/C(C)=C/CC[C@H](O)[C@@H](OC)C[C@@H]2O)[C@H](C)[C@@H](O)[C@H]1C)O[C@H]1C[C@](C)(O)[C@@H](O[C@H]2C[C@@H](OC)[C@H](O)[C@@H](C)O2)[C@H](C)O1
Ki [5]: 17000 nM

IC50 (HL-60 [6]): 100 nM | IC50 [7]: 3000 nM
SMILES: c1csc(-c2c3ccc(=[N+]4CCCCC4)cc-3oc3cc(N4CCCCC4)ccc23)c1

IC50 (P388): 0.88 nM
SMILES: CC/C(C)=C(\NC(=O)[C@@H](NC(=O)CC(=O)[C@@H](C)CC(C)C)[C@](C)(O)CC)C(=O)NCC(=O)N/C(C(=O)N[C@@H](C(=O)N[C@@H](C(=O)N[C@@H](C(=O)N[C@H](C(=O)N/C(C(=O)N[C@H](C)C(=O)N[C@@H](C(=O)N[C@H](C(=O)NC(C(=O)N[C@H](CN(C)C)C(C)C)=C(C)C)C(C)C)C(C)C)=C(\C)CC)C(C)(C)O)C(C)(C)O)[C@@H](C)CC)C(C)C)=C(\C)CC

IC50 (MCF7 [8]): 80000 nM
SMILES: Oc1ccc(/C=C/c2cc(O)cc(O)c2)cc1 [RESVERATROL]

SMILES: CC[C@H]1O[C@@]2(C)[C@H](OC(C)=O)[C@@]1(C)O[C@@H](/C=C/C=C/C=C/c1oc(=O)cc(OC)c1C)[C@@H]2O
Ki [9]: 25 nM | Ki [10]: 120 nM | IC50 (T47D): 890 nM | IC50 (MDA-MB-231): 5520 nM | IC50 (MCF7 [11]): 90 nM | IC50 (HL-60 [12]): 14700 nM | IC50 (SMMC-7721): 10800 nM | IC50 (A549): 14700 nM | IC50 (SW480): 22400 nM

IC50 (NCI-H292): 82 nM | IC50 (HeLa): 260 nM
SMILES: COC[C@@H](C[C@H]1O[C@@](O)([C@H](O)[C@@H]2C[C@H](OC)[C@@H](O)CC/C=C(C)/C=C/[C@@H](O[C@@H]3O[C@@H](C)[C@H](OC)[C@@H](OC(=O)CCC(=O)O)[C@@H]3O)[C@H](C)/C=C(C)/C=C(C)/C=C(\C)C(=O)O2)[C@H](C)[C@@H](O)[C@H]1C)O[C@H]1C[C@](C)(O)[C@@H](O[C@H]2C[C@@H](OC)[C@H](O)[C@@H](C)O2)[C@H](C)O1

IC50 (MCF7 [8]): 42700 nM
SMILES: O=C(Oc1cc(/C=C/c2ccc(O)cc2)cc(OC(=O)c2ccco2)c1)c1ccco1

IC50 (HL-60 [6]): 100 nM | IC50 [7]: 3900 nM
SMILES: Ic1ccc(-c2c3ccc(=[N+]4CCCCC4)cc-3oc3cc(N4CCCCC4)ccc23)cc1
